Consider eleven molecules from article PMC7466040, “Sevanol and Its Analogues: Chemical Synthesis, Biological Effects and Molecular Docking” (Pharmaceuticals, 2020).

The structures appear in SMILES notation.

In assay [1] the test system is ASIC3-containing channels. Further details: method as in PMID 11588175. To be noted: read-out: IC50, inhibition of ASIC3-containing channels; cited from earlier work.
Assay [2] concerns ASIC1a-containing channels. The arrangement: method as in PMID 11588175. As to conditions: read-out: IC50, inhibition of ASIC1a-containing channels; cited from earlier work.
Assay [3] concerns all of the functional isoforms of ASICs. The arrangement: method as in PMID 9261094. To be noted: read-out: IC50, inhibition of ASICs; cited from earlier work.
The next assay deals with T1, rat ASIC3 (Rattus norvegicus, UniProt O35240).
T1 construct: expressed in transfected cells; host or cells: Xenopus laevis oocytes (cRNA injection)
T1 sequence (O35240 1-533): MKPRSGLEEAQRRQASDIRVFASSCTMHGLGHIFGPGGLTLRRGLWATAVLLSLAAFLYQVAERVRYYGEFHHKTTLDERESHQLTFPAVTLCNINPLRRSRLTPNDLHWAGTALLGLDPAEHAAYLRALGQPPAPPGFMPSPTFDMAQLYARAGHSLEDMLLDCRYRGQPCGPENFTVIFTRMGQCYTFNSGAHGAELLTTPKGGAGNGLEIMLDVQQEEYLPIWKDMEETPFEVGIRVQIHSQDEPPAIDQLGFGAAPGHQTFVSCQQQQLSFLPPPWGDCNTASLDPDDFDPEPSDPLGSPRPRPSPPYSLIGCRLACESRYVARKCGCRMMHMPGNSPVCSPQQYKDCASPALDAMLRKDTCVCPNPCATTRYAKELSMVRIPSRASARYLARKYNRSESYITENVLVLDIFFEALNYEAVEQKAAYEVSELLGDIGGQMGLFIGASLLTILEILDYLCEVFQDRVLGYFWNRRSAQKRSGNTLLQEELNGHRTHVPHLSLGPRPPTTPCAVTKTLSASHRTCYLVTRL
The assay is described as follows: Two-electrode voltage clamp on X. laevis oocytes expressing rat ASIC3. Type of assay: cell-based. As to conditions: for IC50: X. laevis oocytes, pH drop 7.4 to 5.5, holding potential −50 mV, mean ± SEM of 5–6, read-out: IC50, inhibition of ASIC3 current; for maximal current block, ASIC3: effect reversible. As to the method:
(§1) Testing the activity of synthetic sevanol (s706) (as a mixture of 75% of sevanol and 25% of isosevanol) and its analogues (s590, EA, and s788) was carried out by the standard two-electrode voltage clamp method on X. laevis oocytes expressing rat ASIC1a and ASIC3 channels. The activation of the channels was performed using a rapid change of the solution from conditioning pH 7.4 to a solution with pH 5.5. Sevanol and its two analogues, s590 and EA, inhibited ASIC1a and ASIC3 channels.
(§2) Oocytes were harvested from female frogs anaesthetized with tricaine methane sulfonate (MS222) (0.17% solution), and the surgery was performed in an ice bath to avoid heavy bleeding. Defolliculated stage IV and V cells were injected with 2.5 and 10 ng cRNA, synthesized from PCi plasmids containing the rat ASIC1a and rat ASIC3 isoforms, respectively, using the Nanoliter 2000 microinjection system (World Precision Instruments, USA). The injected oocytes were kept for 2–3 days at 17 to 19 °C, and then for up to 5 days at 15 °C in a ND96 medium containing (in mM) 96 NaCl, 2 KCl, 1.8 CaCl2, 1 MgCl2, and 5 HEPES titrated to pH 7.4 with NaOH supplemented with gentamycin (50 μg/mL). Two-electrode voltage clamp recordings were performed at a holding potential of −50 mV using a GeneClamp 500 amplifier (Axon Instruments), and the data were filtered at 20 Hz and digitized at 100 Hz by an AD converter L780 (LCard, Russia). Microelectrodes were filled with 3 M KCl. The conditioning bath solution was ND96; the pH was adjusted to 7.4. The activating test solution was constructed based on the ND-96 buffer, in which 5 mM HEPES was replaced with 10 mM MES and pH was adjusted to 5.5. A computer-controlled valve system was used to achieve a rapid solution exchange in the recording chamber. A four parameter logistic equation was used for the curve-fitting analysis: F(x) = ((a1 − a2)/(1 + (x/x0)n)) + a2, where x is the concentration of the compound; F(x) is the response value at a given concentration of the compound; a1 is the control response value (fixed at 100%); x0 is the IC50 value; n is the Hill coefficient (slope factor); and a2 is the response value at the maximal inhibition (% of control).
(§3) Figure 2 The inhibitory activity of sevanol (s706) and its analogues. Currents were elicited by a drop from pH 7.4 to 5.5; the holding potential was −50 mV; (A,C) are dose–response curves for s706, s590 and EA inhibitory effects on ASIC1a and ASIC3 channels, respectively; (B,D) are reciprocal IC50 values for s706, s590 and EA inhibitory effects on ASIC1a and ASIC3 channels, respectively. The data were fitted by the logistic equation. Each point is the mean ± SEM of 5–6 measurements. * p < 0.05, ** p < 0.005.
A general note: Two-electrode voltage clamp is typically applied to oocytes expressing channels or transporters.

The target of a further assay is T2, rat ASIC1a (Rattus norvegicus, UniProt P55926).
T2 construct: expressed in transfected cells; host or cells: Xenopus laevis oocytes (cRNA injection)
T2 sequence (P55926 1-526): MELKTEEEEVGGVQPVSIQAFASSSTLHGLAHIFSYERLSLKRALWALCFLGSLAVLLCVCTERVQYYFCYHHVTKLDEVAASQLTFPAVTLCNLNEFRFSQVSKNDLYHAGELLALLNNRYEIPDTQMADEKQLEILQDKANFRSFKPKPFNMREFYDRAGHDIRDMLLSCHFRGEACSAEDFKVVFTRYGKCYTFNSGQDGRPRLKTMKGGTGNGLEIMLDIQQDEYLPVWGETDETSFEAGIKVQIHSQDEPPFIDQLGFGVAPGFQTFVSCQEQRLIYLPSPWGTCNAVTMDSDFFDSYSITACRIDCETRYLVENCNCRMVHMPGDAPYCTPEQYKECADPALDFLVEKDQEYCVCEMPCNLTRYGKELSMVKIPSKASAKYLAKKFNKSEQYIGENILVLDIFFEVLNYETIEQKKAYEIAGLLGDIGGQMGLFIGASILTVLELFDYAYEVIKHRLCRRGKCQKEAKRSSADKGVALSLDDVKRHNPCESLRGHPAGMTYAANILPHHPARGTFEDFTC
The assay is described as follows: Two-electrode voltage clamp on X. laevis oocytes expressing rat ASIC1a. Type of assay: cell-based. To be noted: for IC50: X. laevis oocytes, pH drop 7.4 to 5.5, holding potential −50 mV, mean ± SEM of 5–6, read-out: IC50, inhibition of ASIC1a current; for maximal current block, ASIC1a: effect reversible. As to the method:
as §1, §2, §3

The test system of another assay is ASIC1a. Further details: method as in PMID 25196733. To be noted: cited from earlier work.
The test system of a further assay is ASIC currents. Further details: method as in PMID 16061325. As to conditions: read-out: IC50, non-selective inhibition of ASIC currents; cited from earlier work.

Take `O=C(O)Cc1ccccc1Nc1c(Cl)cccc1Cl` [diclofenac]: the IC50 in assay [1] is 92 µM.

Take `CC(=O)Oc1ccccc1C(=O)O` [aspirin]: the IC50 in assay [1] was 260 µM.

On to `CC(C(=O)O)c1ccc(-c2ccccc2)c(F)c1` (stereo not shown) [flurbiprofen], for which, in assay [2], the IC50 is 350 µM.

For `N=C(N)NC(=O)c1nc(Cl)c(N)nc1N` [Amiloride], the IC50 in assay [3] was 10 to 60 µM.

On to `CC(C)Cc1ccc(C(C)C(=O)O)cc1` (stereo not shown) [ibuprofen], for which, in assay [2], the IC50 is 350 µM.

`O=C(O)C1=Cc2cc(O)c(O)cc2[C@@H](c2ccc(O)c(O)c2)[C@@H]1C(=O)O` [EA, epiphyllic acid]: the IC50 on rat ASIC3 was determined as 424 ± 33 µM; at rat ASIC1a it was 415 ± 66 µM. Further, the “maximal current block, ASIC3” value at rat ASIC3 (pH 7.4 to 5.5) is listed as 100%. For the same molecule, the “effectiveness in inhibiting ASIC3 relative to ASIC1a” value on rat ASIC3 (ratio of ASIC1a and ASIC3 inhibition) is “acted equally on the ASIC1a and ASIC3 channels”. The “maximal current block, ASIC1a” value at rat ASIC1a (pH 7.4 to 5.5) amounted to 100%.

For the molecule `CC12CC3CC(C)(C1)CC(N)(C3)C2` [memantine], the “inhibition of ASIC1a” value in the assay on ASIC1a is “inhibit ASIC1a in submillimolar concentrations”.

With `Nc1c2ccccc2nc2ccccc12` [9-aminoacridine], the “inhibition of ASIC1a” value in the assay with ASIC1a was “inhibit ASIC1a in submillimolar concentrations”.

As to `CC(C)C1c2cc(C3CC3c3ccc4cc(C(=N)N)ccc4c3)ccc2CCN1C` (stereo not shown) [A-317567], the IC50 in the assay on ASIC currents is 2 to 30 µM.

Consider `O=C(O)CC(OC(=O)C1=Cc2cc(O)c(O)cc2C(c2ccc(O)c(O)c2)C1C(=O)OC(CC(=O)O)C(=O)O)C(=O)O` (stereo not shown) [s590, 2,2′-((1-(3,4-dihydroxyphenyl)-6,7-dihydroxy-1,2-dihydronaphthalene-2,3-dicarbonyl)bis(oxy))disuccinic acid], for which the IC50 at rat ASIC3 came out at 241 ± 25 µM; at rat ASIC1a it was 297 ± 41 µM. Besides, the “maximal current block, ASIC3” value on rat ASIC3 (pH 7.4 to 5.5) amounted to 100%. Moreover, the “maximal current block, ASIC1a” value on rat ASIC1a (pH 7.4 to 5.5) was 100%.

Consider `COC(=O)CC(C(=O)OC)C(OC(=O)C1=Cc2cc(O)c(O)cc2C(c2ccc(O)c(O)c2)C1C(=O)OC(C(=O)OC)C(CC(=O)OC)C(=O)OC)C(=O)OC` (stereo not shown) [s788, Hexamethyl1,1′-((1-(3,4-dihydroxyphenyl)-6,7-dihydroxy-1,2-dihydronaphthalene-2,3-dicarbonyl)bis(oxy))bis(propane-1,2,3-tricarboxylate)], for which the “activity on ASIC3 channel” value at rat ASIC3 (pH 7.4 to 5.5) is “did not demonstrate any activity”. Also, at rat ASIC1a (pH 7.4 to 5.5), the “activity on ASIC1a channel” value is “did not demonstrate any activity”.

By IC50 is commonly meant the point on the concentration scale where inhibition reaches its midpoint.
